Measurements reported in US20130324522A1, “INSECT ODORANT RECEPTOR ANTAGONISTS” (THE ROCKEFELLER UNIVERSITY, priority 2010, published 2013).

How the values were obtained:
OR10/OR7 = OR10/OR7 (Anopheles gambiae, UniProt B5U0U7+Q7QCC7); assay: Ca2+-imaging of stable HEK293T cell line OR10/OR7; format: cell-based; conditions: for inhibition at 4 µM: HEK-293T, compound applied at 4 μM, read-out: Percent Inhibition OR10 OR7; for IC50: Table B, read-out: IC50 OR10
Experimental: (§1) Stable cell lines OR1/OR7, OR2/OR7, OR8/OR7, OR10/OR7, OR28/OR7 and TRPM8 were generated from HEK293T cells. HEK293T-based cell lines were cultured in DMEM supplemented with these additional antibiotics: 6 μg/mL blasticidin and 1 μg/mL puromycin, with the exception of the TRPM8 cell lines, which was cultured in DMEM supplemented with 1 μg/mL puromycin.
After one day of incubation, the transfected cells were transferred into 10 cm dishes with DMEM containing antibiotics as follows: • 0.5 μg/mL of blasticidin for OR1/OR7, OR2/OR7, OR8/OR7, OR10/OR7, OR28/OR7 • 0.2 μg/mL of puromycin for TRPM8.
(§2) Stable cell lines were cultured in 10 cm dishes, and confluent cells (70-80%) were trypsinized. 10,000 cells/20 μL were transferred into each well of 384-well plates coated with poly-D-lysine, and cultured for 2 days. For Flip-In T-Rex cells (cell lines expressing Or47a/Or83b and 5HT3), 5 μL of tetracycline (5 μg/mL) were added 1 day before the assay. 20 μL of Ca-4 dye was loaded into each well for 1.5 hr at room temperature in the dark, and the dye-loaded plates were subjected to Ca^2+-imaging using a Hamamatsu FDSS6000 real time fluorescence plate reader. Odorant solutions (9× final concentration) were prepared by dissolving 1M stock solutions into Hank's Buffered Salt Solution (HBSS), and 30 μL of odor solution was transferred to each well in 384-well plates.
(§3) Compounds ([…] in DMSO) were stored in 384-well plates, and last two columns (32 wells total) contained only DMSO. 200 nL of small compounds were transferred into the odorant plates before the assay using the Perkin-Elmer Janus workstation. The odorant plates were spun down to remove air bubbles, and placed on the FDSS6000 plate loader, and 5 μL of odorant solution was applied to the cell plate on the FDSS6000. Ca^2+ increase was monitored with fluorescence at 525 nm by excitation at 485 nm.

OR28/OR7 = OR28/OR7 (Anopheles gambiae, UniProt A0A1S4GFY3+Q7QCC7); assay: Ca2+-imaging of stable HEK293T cell line OR28/OR7; format: cell-based; conditions: for inhibition at 4 µM: HEK-293T, compound applied at 4 μM, read-out: Percent Inhibition OR28 OR7; for IC50: Table B, read-out: IC50 OR28
Chain of OR28/OR7 (A0A1S4GFY3 entry or part of it): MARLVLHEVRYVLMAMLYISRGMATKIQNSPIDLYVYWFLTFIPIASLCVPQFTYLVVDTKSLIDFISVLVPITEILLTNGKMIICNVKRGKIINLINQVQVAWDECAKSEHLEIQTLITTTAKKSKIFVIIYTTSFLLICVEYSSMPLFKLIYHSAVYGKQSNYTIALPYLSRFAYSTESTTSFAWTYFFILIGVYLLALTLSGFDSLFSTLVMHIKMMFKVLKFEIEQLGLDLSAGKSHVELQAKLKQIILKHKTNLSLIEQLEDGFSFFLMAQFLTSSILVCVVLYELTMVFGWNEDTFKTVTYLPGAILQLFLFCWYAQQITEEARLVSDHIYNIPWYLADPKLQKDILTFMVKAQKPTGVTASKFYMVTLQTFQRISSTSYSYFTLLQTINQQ
Chain of OR28/OR7 (Q7QCC7 whole entry): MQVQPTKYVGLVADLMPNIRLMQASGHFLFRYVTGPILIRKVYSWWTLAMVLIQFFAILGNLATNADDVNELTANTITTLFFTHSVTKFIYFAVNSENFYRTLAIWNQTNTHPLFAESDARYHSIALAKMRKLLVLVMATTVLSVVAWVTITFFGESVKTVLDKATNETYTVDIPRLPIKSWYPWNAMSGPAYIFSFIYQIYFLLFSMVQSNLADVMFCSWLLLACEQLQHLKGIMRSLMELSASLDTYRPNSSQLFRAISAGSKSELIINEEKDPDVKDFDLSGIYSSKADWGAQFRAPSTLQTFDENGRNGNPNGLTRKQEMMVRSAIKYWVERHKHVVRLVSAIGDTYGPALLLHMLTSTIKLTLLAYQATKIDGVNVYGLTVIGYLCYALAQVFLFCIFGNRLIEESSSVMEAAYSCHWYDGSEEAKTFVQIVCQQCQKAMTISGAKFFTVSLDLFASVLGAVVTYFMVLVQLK
Experimental: Full-length cDNAs for mosquito (Anopheles gambiae) odorant receptor (OR1, OR2, OR7, OR8, OR28), and fly (Drosophila melanogaster) odorant receptor (Or47a, Or83b), mouse TRP channel (TRPM8), and mouse serotonin receptor (5HT3) were obtained and subcloned into mammalian expression vectors. The following mammalian expression vectors were used:
as §1
Cells were trypsinized and split into 35 mm dishes one day before transfection. Confluent cells (60-70%) in 35 mm dishes were transfected with 1 μg of insect OR(X) plasmids in pME18s-bla and 1 μg of OR7-pME18s-puro using lipofectamine 2000. For Anopheles odorant receptors, two plasmids were co-transfected into HEK cells: the ligand-specific receptor (OR1, OR2, OR8, OR28) and the corresponding olfactory co-receptor: OR7. Cell lines containing TRPM8 were transfected with single plasmid.
as §2, §3

Chain of OR10/OR7 (Q7QCC7 whole entry): as above
Chain of OR10/OR7 (B5U0U7 entry or part of it): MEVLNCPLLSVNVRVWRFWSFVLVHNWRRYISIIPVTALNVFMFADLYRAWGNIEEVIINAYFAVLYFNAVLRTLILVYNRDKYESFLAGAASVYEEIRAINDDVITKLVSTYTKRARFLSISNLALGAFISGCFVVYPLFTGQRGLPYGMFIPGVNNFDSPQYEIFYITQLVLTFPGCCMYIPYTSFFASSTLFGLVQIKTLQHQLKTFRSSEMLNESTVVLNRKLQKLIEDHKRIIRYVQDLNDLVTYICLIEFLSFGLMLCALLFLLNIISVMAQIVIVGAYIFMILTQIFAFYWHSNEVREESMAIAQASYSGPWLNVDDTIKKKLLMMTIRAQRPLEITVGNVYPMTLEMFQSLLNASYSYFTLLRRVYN

Cc1ccccc1C(=O)N[C@@H]1CCCCC1NC(=O)C1CCN(C(=O)c2cc(C(F)(F)F)cc(C(F)(F)F)c2)CC1 (stereo partly drawn) [RU-0045778]
inhibition at 4 µM (OR10/OR7): < 25%
inhibition at 4 µM (OR28/OR7): 51 to 74%
IC50 (OR28/OR7): < 100 nM

CCNc1nc(NC(C)C)nc(N(C#N)Cc2ccccc2)n1 [RU-0015806]
inhibition at 4 µM (OR10/OR7): 26 to 50%
IC50 (OR10/OR7): > 1000 nM
inhibition at 4 µM (OR28/OR7): > 75%
IC50 (OR28/OR7): < 100 nM

Cc1cc(C)c(Cn2ccnc2CN(C(=O)c2ccccc2F)C(C)C)c(C)c1 [RU-0048001]
inhibition at 4 µM (OR10/OR7): > 75%
IC50 (OR10/OR7): < 100 nM
inhibition at 4 µM (OR28/OR7): > 75%
IC50 (OR28/OR7): < 100 nM

COc1cccc(NC(=O)CCC2CCN(C(=O)CSc3ccccc3)CC2)c1 [RU-0032474]
inhibition at 4 µM (OR10/OR7): < 25%
inhibition at 4 µM (OR28/OR7): 51 to 74%
IC50 (OR28/OR7): < 100 nM

CCCCCCCC(=O)N1CCCC(C(=O)NC2CCCC[C@H]2NC(=O)c2ccccc2C)C1 (stereo partly drawn) [RU-0045756]
inhibition at 4 µM (OR10/OR7): < 25%
inhibition at 4 µM (OR28/OR7): 51 to 74%
IC50 (OR28/OR7): > 1000 nM

O=C(c1cccnc1Cl)N1CCOC(COCc2c(Cl)cccc2Cl)C1 (stereo not drawn) [RU-0050372]
inhibition at 4 µM (OR10/OR7): 26 to 50%
inhibition at 4 µM (OR28/OR7): > 75%
IC50 (OR28/OR7): < 100 nM

O=C(c1cccc(F)c1)N(Cc1c(-c2ccccc2)noc1N1CCCC1)CC1CCCO1 (stereo not drawn) [RU-0037434]
inhibition at 4 µM (OR10/OR7): 26 to 50%
inhibition at 4 µM (OR28/OR7): > 75%
IC50 (OR28/OR7): < 100 nM

CC(C)CN(Cc1nccn1Cc1c(F)cccc1Cl)C(=O)c1ccc(F)cc1 [RU-0048054]
inhibition at 4 µM (OR10/OR7): 51 to 74%
IC50 (OR10/OR7): < 100 nM
inhibition at 4 µM (OR28/OR7): < 25%
IC50 (OR28/OR7): < 100 nM

CCN(CC)c1onc(-c2ccccc2)c1CN(CC1CCCO1)C(=O)c1ccco1 (stereo not drawn) [RU-0036855]
inhibition at 4 µM (OR10/OR7): < 25%
inhibition at 4 µM (OR28/OR7): > 75%
IC50 (OR28/OR7): < 100 nM

N#Cc1ccccc1C(=O)N1CCOC(COCc2c(Cl)cccc2Cl)C1 (stereo not drawn) [RU-0050405]
inhibition at 4 µM (OR10/OR7): 26 to 50%
IC50 (OR10/OR7): > 1000 nM
inhibition at 4 µM (OR28/OR7): > 75%
IC50 (OR28/OR7): < 100 nM

O=C(c1ccco1)N(Cc1ccco1)Cc1nccn1Cc1ccccc1F [RU-0047694]
inhibition at 4 µM (OR10/OR7): 51 to 74%
IC50 (OR10/OR7): < 100 nM
inhibition at 4 µM (OR28/OR7): > 75%
IC50 (OR28/OR7): < 100 nM

CCN(CC)c1onc(-c2ccccc2)c1CN(CC1CCCO1)C(=O)c1ccc2c(c1)OCO2 (stereo not drawn) [RU-0036875]
inhibition at 4 µM (OR10/OR7): 26 to 50%
inhibition at 4 µM (OR28/OR7): > 75%
IC50 (OR28/OR7): < 100 nM

COCCN(Cc1nccn1Cc1c(F)cccc1Cl)C(=O)CCc1ccccc1 [RU-0058550]
inhibition at 4 µM (OR10/OR7): 26 to 50%
inhibition at 4 µM (OR28/OR7): > 75%
IC50 (OR28/OR7): < 100 nM

Cc1cccc(NC(=O)CCC2CCN(C(=O)CCOc3ccccc3)CC2)c1 [RU-0030324]
inhibition at 4 µM (OR10/OR7): 26 to 50%
inhibition at 4 µM (OR28/OR7): > 75%
IC50 (OR28/OR7): < 100 nM

COCCN(Cc1c(-c2ccccc2)noc1N(C)C1CCCCC1)C(=O)c1ccccc1OC [RU-0037275]
inhibition at 4 µM (OR10/OR7): < 25%
inhibition at 4 µM (OR28/OR7): > 75%
IC50 (OR28/OR7): < 100 nM

COc1ccc(-c2cc(-c3ccccc3)n(C(=O)CN3CCN(Cc4ccccc4)CC3)n2)cc1 [RU-0038795]
inhibition at 4 µM (OR10/OR7): < 25%
inhibition at 4 µM (OR28/OR7): > 75%
IC50 (OR28/OR7): < 100 nM

COc1cccc(-c2nnc(SCCCC(=O)N3CCN(C(=O)CC(C)(C)C)C(C)C3)n2-c2ccc(C)cc2)c1 (stereo not drawn) [RU-0071818]
inhibition at 4 µM (OR10/OR7): 51 to 74%
IC50 (OR10/OR7): > 1000 nM
inhibition at 4 µM (OR28/OR7): > 75%
IC50 (OR28/OR7): < 100 nM

CCc1c(C(=O)NCc2cccnc2)cnn1-c1ccccc1 [RU-0048504]
inhibition at 4 µM (OR10/OR7): 51 to 74%
IC50 (OR10/OR7): < 100 nM
inhibition at 4 µM (OR28/OR7): > 75%
IC50 (OR28/OR7): < 100 nM

O=C(CCC1CCN(C(=O)c2cccc(-n3cccn3)c2)CC1)Nc1ccccc1 [RU-0032465]
inhibition at 4 µM (OR10/OR7): < 25%
inhibition at 4 µM (OR28/OR7): > 75%
IC50 (OR28/OR7): < 100 nM

Cc1ccc(-c2nnc(SCCCC(=O)N3CCN(C(=O)c4cccc(F)c4)C(C)C3)n2-c2ccc(C)cc2)cc1 (stereo not drawn) [RU-0071789]
inhibition at 4 µM (OR10/OR7): > 75%
IC50 (OR10/OR7): < 100 nM
inhibition at 4 µM (OR28/OR7): > 75%
IC50 (OR28/OR7): < 100 nM

Cc1cccc(Cn2ccnc2CN(C(=O)c2ccccc2F)C2CCCCC2)c1 [RU-0047851]
inhibition at 4 µM (OR10/OR7): > 75%
IC50 (OR10/OR7): < 100 nM
inhibition at 4 µM (OR28/OR7): 26 to 50%
IC50 (OR28/OR7): < 100 nM
